Assay results: article PMC12396409, “Screening and hit evaluation of a microbial metabolite library against the pathogenic Plasmodium falciparum and Toxoplasma gondii parasites” (International Journal for Parasitology: Drugs and Drug …, 2025)
Where two headings read alike, the source gives them in different places.

Key:
[1] = test system: P. falciparum 3D7 parasites; test: P. falciparum growth inhibition assay, 1-cycle (72 h treatment), SYBR DNA staining (library screen at 2 μg/mL and dose-response); assay type: cell-based, Plasmodium falciparum; conditions: for activity at 2 µg/mL: Plasmodium falciparum, 3D7, 72 h
[2] = test system: P. falciparum 3D7 parasites; test: P. falciparum growth inhibition assay, 2-cycle (120 h treatment), delayed-death screen and dose-response; assay type: cell-based, Plasmodium falciparum; conditions: for activity at 2 µg/mL: Plasmodium falciparum, 3D7, 120 h
[3] = test system: T. gondii RH strain (RH-Tub-eYFP) tachyzoites; test: microbe, parasite or virus in culture; assay type: cell-based, Toxoplasma gondii; conditions: 72 h, 72 h; for percent parasite growth at 2 µg/mL: Toxoplasma gondii
[4] = library screen at 2 μg/mL, 72 h, % growth, replicate 1
[5] = library screen at 2 μg/mL, 72 h, % growth, replicate 2
[6] = library screen at 2 μg/mL, 120 h, % growth, replicate 1
[7] = library screen at 2 μg/mL, 120 h, % growth, replicate 2
[8] = library screen at 2 μg/mL, % growth, replicate 1
[9] = library screen at 2 μg/mL, % growth, replicate 2

`CO[C@H]1[C@H](O)C[C@@H](O[C@@H]2C[C@H](Oc3cc4cc5c(c(O)c4c(O)c3C)C(=O)[C@@H](O[C@H]3C[C@H](O[C@H]4C[C@H](O[C@H]6C[C@@](C)(O)[C@@H](OC(=O)C(C)C)[C@H](C)O6)[C@H](O)[C@@H](C)O4)[C@H](O)[C@@H](C)O3)[C@H]([C@H](OC)C(=O)[C@@H](O)[C@@H](C)O)C5)O[C@H](C)[C@H]2OC(C)=O)O[C@@H]1C` [Chromomycin A2] showed an activity at 2 µg/mL ([1]; P. falciparum, 72 h, screen at 2 μg/mL, replicate 1, read-out: Pf_72h_%Growth_Rep1) of 6.05%, an activity at 2 µg/mL ([1]; P. falciparum, 72 h, screen at 2 μg/mL, replicate 2, read-out: Pf_72h_%Growth_Rep2) of 1.3% and an activity at 2 µg/mL ([2]; P. falciparum, 120 h, screen at 2 μg/mL, replicate 1, read-out: Pf_120h_%Growth_Rep1) of 3.01%. For the same molecule, the activity at 2 µg/mL ([2]; P. falciparum, 120 h, screen at 2 μg/mL, replicate 2, read-out: Pf_120h_%Growth_Rep2) was 9.04%, the percent parasite growth at 2 µg/mL ([3]; T. gondii, screen at 2 μg/mL, replicate 1, read-out: Tg_72h_%Growth_Rep1) was 2.51% and the percent parasite growth at 2 µg/mL ([3]; T. gondii, screen at 2 μg/mL, replicate 2, read-out: Tg_72h_%Growth_Rep2) was 1.82%.
`CCC1(C2OC(C3OC(O)(CO)C(C)CC3C)CC2C)CCC(C2(C)CCC3(CC(O)C(C)C(C(C)C(OC)C(C)C(=O)O)O3)O2)O1` (stereo not drawn) [BIA-M1303] gave a Pf_72h_%Growth_Rep1 ([1]; P. falciparum 3D7, 72 h, parasite screen at 2 μg/mL, % growth, replicate 1) of 1.29%, a Pf_72h_%Growth_Rep2 ([1]; P. falciparum 3D7, 72 h, parasite screen at 2 μg/mL, % growth, replicate 2) of -3.52% and a Pf_120h_%Growth_Rep1 ([2]; P. falciparum 3D7, 120 h, parasite screen at 2 μg/mL, % growth, replicate 1) of 3.05%. For the same molecule, the Pf_120h_%Growth_Rep2 ([2]; P. falciparum 3D7, 120 h, parasite screen at 2 μg/mL, % growth, replicate 2) was 14.66%, the Tg_72h_%Growth_Rep1 ([3]; T. gondii, parasite screen at 2 μg/mL, % growth, replicate 1) was 1.84% and the Tg_72h_%Growth_Rep2 ([3]; T. gondii, parasite screen at 2 μg/mL, % growth, replicate 2) was 2.05%.
In the case of `CC1=CC[C@H]2C(C)(C)CCC[C@]2(C)[C@H]1CO` [Drimenol], the Pf_72h_%Growth_Rep1 [1, 4] is reported as 88.25%, the Pf_72h_%Growth_Rep2 [1, 5] is reported as 89.37% and the Pf_120h_%Growth_Rep1 [2, 6] is reported as 92.79%. For the same molecule, the Pf_120h_%Growth_Rep2 [2, 7] was 93.83%, the Tg_72h_%Growth_Rep1 [3, 8] was 153.93% and the Tg_72h_%Growth_Rep2 [3, 9] was 98.02%.
Work on `CC(CCCCCCCCCCCCCCOC1OC(CO)C(O)C(O)C1O)C(O)=C1C(=O)C(C)N(C)C1=O` (stereo not drawn) [Epicoccamide] yielded a Pf_72h_%Growth_Rep1 [1, 4] of 87.59%, a Pf_72h_%Growth_Rep2 [1, 5] of 88.25% and a Pf_120h_%Growth_Rep1 [2, 6] of 94.92%. It also gave a Pf_120h_%Growth_Rep2 [2, 7] of 97.01%, a Tg_72h_%Growth_Rep1 [3, 8] of 135.91% and a Tg_72h_%Growth_Rep2 [3, 9] of 106.99%.
`CN1C(=O)c2ccccc2-n2c(nc3ccccc3c2=O)[C@@H]1Cc1ccccc1` [Benzomalvin A] was tested, and the Pf_72h_%Growth_Rep1 [1, 4] was 68.69%, the Pf_72h_%Growth_Rep2 [1, 5] was 85.94% and the Pf_120h_%Growth_Rep1 [2, 6] was 152.22%. It also gave a Pf_120h_%Growth_Rep2 [2, 7] of 94.98%, a Tg_72h_%Growth_Rep1 [3, 8] of 76.13% and a Tg_72h_%Growth_Rep2 [3, 9] of 90.69%.
`C[C@@H]1[C@H](O)[C@@H](C)/C=C/C=C/C=C/C=C/C=C/C=C/C=C/[C@H](O[C@@H]2O[C@H](C)[C@@H](O)[C@H](N)[C@@H]2O)C[C@@H]2O[C@](O)(C[C@@H](O)C[C@@H](O)[C@H](O)CC[C@@H](O)C[C@@H](O)CC(=O)O[C@H]1C)C[C@H](O)[C@H]2C(=O)O` [Amphotericin B] was tested, and the activity at 2 µg/mL ([1]; library screen at 2 μg/mL, 72 h, % growth, replicate 1, read-out: Pf_72h_%Growth_Rep1) was 84.3%, the activity at 2 µg/mL ([1]; library screen at 2 μg/mL, 72 h, % growth, replicate 2, read-out: Pf_72h_%Growth_Rep2) was 90.2% and the activity at 2 µg/mL ([2]; library screen at 2 μg/mL, 120 h, % growth, replicate 1, read-out: Pf_120h_%Growth_Rep1) was 77%. It also gave an activity at 2 µg/mL ([2]; library screen at 2 μg/mL, 120 h, % growth, replicate 2, read-out: Pf_120h_%Growth_Rep2) of 69.3%, a percent parasite growth at 2 µg/mL ([3]; library screen at 2 μg/mL, % growth, replicate 1, read-out: Tg_72h_%Growth_Rep1) of 101% and a percent parasite growth at 2 µg/mL ([3]; library screen at 2 μg/mL, % growth, replicate 2, read-out: Tg_72h_%Growth_Rep2) of 86.5%.
`COc1cc(O)c2c(=O)oc3c(O)c(OC)cc(C)c3c2c1` [BIA-G1559] showed a Pf_72h_%Growth_Rep1 ([1]; P. falciparum 3D7, 72 h, library screen at 2 μg/mL, % growth, replicate 1) of 89.69%, a Pf_72h_%Growth_Rep2 ([1]; P. falciparum 3D7, 72 h, library screen at 2 μg/mL, % growth, replicate 2) of 92.13% and a Pf_120h_%Growth_Rep1 ([2]; P. falciparum 3D7, 120 h, library screen at 2 μg/mL, % growth, replicate 1) of 94.64%. It also gave a Pf_120h_%Growth_Rep2 ([2]; P. falciparum 3D7, 120 h, library screen at 2 μg/mL, % growth, replicate 2) of 147.16%, a Tg_72h_%Growth_Rep1 ([3]; T. gondii RH, library screen at 2 μg/mL, % growth, replicate 1) of 136.29% and a Tg_72h_%Growth_Rep2 ([3]; T. gondii RH, library screen at 2 μg/mL, % growth, replicate 2) of 91.52%.
`C[C@H]1CCC[C@@H](O)CCCCCc2cc(O)cc(O)c2C(=O)O1` [Zearalanol, beta-] was tested, and the Pf_72h_%Growth_Rep1 ([1]; P. falciparum, 72 h, screen at 2 μg/mL, replicate 1) was 81.97%, the Pf_72h_%Growth_Rep2 ([1]; P. falciparum, 72 h, screen at 2 μg/mL, replicate 2) was 86.14% and the Pf_120h_%Growth_Rep1 ([2]; P. falciparum, 120 h, screen at 2 μg/mL, replicate 1) was 90.97%. The Pf_120h_%Growth_Rep2 ([2]; P. falciparum, 120 h, screen at 2 μg/mL, replicate 2) was 85.38%, the Tg_72h_%Growth_Rep1 ([3]; T. gondii, screen at 2 μg/mL, replicate 1) was 150.26% and the Tg_72h_%Growth_Rep2 ([3]; T. gondii, screen at 2 μg/mL, replicate 2) was 92.47%.
